Source: patent US20250114462A1, “HYDROPHILIC FUNCTIONALIZED PARTICLES IN THE DELIVERY OF HYDROPHOBIC DRUGS” (NEW JERSEY INSTITUTE OF TECHNOLOGY, priority 2023, published 2025)

Assay: In vitro dissolution profile (USP-42 paddle method)
Format: physicochemical
Settings: for 50% dissolution time (T50): composites with 0.5 to 1.0% of HFP
Description: Dissolution measurements were carried out using USP-42 paddle method with Symphony 7100 Distek dissolution instrument. Agilent 8453 model UV-Visible spectrophotometer was used at a wavelength at 295.0 nm for the reference drug Griseofulvin standard absorbance measurements that calibrated to measure the formulation polymer incorporated drugs concentration and dissolution percentage estimation.

Initial dissolution rate | 50% dissolution time (T50) | SMILES
74.3 µg/min |  | COc1ccc(-n2nc(C(N)=O)c3c2C(=O)N(c2ccc(N4CCCCC4=O)cc2)CC3)cc1 [Apixaban (APX), apixaban]
110.3 µg/min | 40 | COC1=CC(=O)C[C@@H](C)[C@]12Oc1c(Cl)c(OC)cc(OC)c1C2=O [Griseofulvin (GF), griseofulvin]
84.1 µg/min | 138 | CC(=O)O[C@]1(C(C)=O)CC[C@H]2[C@@H]3C=C(C)C4=CC(=O)CC[C@]4(C)[C@H]3CC[C@@]21C [Megestrol Acetate (MA), megestrol acetate]
